Assay results reported in US20250319069A1, “METHODS FOR TREATING DEPRESSIVE STATES” (BioXcel Therapeutics, Inc., priority 2021, published 2025).

How the values were obtained:
[1] = test system: Yohimbine challenged rats; assay: Elevated plus maze test in Yohimbine challenged rats (Example 2); type: in vivo, male Wistar rats; settings: for In the open arms: Percentage change compared to Yohimbine administered group, Number of entries / In the open arms: Percentage change compared to Yohimbine administered group, Time spent: YOH 2.5 mg/kg; for Number of entries in the open arms (Mean ± SEM) / Time spent in the open arms (Mean ± SEM): rats given YOH 2.5 mg/kg i.p., N=12
Protocol: Treatment with Test Compounds: • As outlined in the table • Vehicle is Saline
After compound administration, the rat was placed on the platform opposite a closed arm. The number of entries and the time spent in each arm were recorded during a 5 min period (deliverables). The animal was considered as entered in arm when it placed its four paws into the arm.
The number of rats processed per day was about 20 in this model. Therefore, the experiment was split in several series.
Analysis of variance (ANOVA) was performed on the result data. Fisher's PLSD was used for
pairwise comparisons and p value <0.05 was considered significant.

rats = assay: Elevated plus-maze test in the rat (Example 1); settings: for significance of effect on number of entries, % of entries and time spent in the open arms as compared with vehicle control: Dexmedetomidine 10 μg/kg i.p. (increase), Fluoxetine 32 mg/kg i.p. (decrease), vs Group 1; for anxiolytic-like / anxiogenic-like activity in the Elevated Plus Maze Test (conclusion in words): rat, Dexmedetomidine 10 μg/kg i.p., alone or co-administered
Protocol: The test, reference, comparison or vehicle formulations were administered as a single intraperitoneal dose (i.p.).
Under standard artificial lighting (˜200 Lux), there was a contrast between the closed (obscure and safe) arms and the open (brightly illuminated and anxiogenic) arms of the maze.
The day preceding the experiment, rats were randomized based on their body weight.
The maze consisted of 4 arms of equal length and width (50×10 cm) arranged in the form of a plus sign (+). Two opposite arms were enclosed by 40 cm high walls (closed arms). The 2 other arms had no walls (open arms). The maze was raised approximately 65 cm above the floor. A rat was placed in the centre of the plus-maze and left to explore for 5 minutes.
The test was video-recorded and the number of entries into the open and closed arms and the time spent on the open arms were measured automatically using a video tracking system (EthoVision, Noldus). The % of open arm entries (open arm entries/total arm entries×100) were calculated. The total distance travelled was also reported.
10 rats were studied per group. The test was performed blind over 2 days with half of animals in each group each day.
Fluoxetine (32 mg/kg i.p.) administered 30 minutes before the test was used as comparison substance.
Clobazam (16 mg/kg i.p.), administered 30 minutes before the test was used as reference substance.
All animals received 2 consecutive administrations at 30 minutes before the test.
Data (for each parameter measured) with the test substance was analysed by comparing treated groups with vehicle controls using one-way ANOVA followed by post-hoc Dunnett's tests.
Data with the comparison reference substance (clobazam) was separately analysed by comparing each treated group with vehicle controls using unpaired Student's T-tests.

[2] = Dexmedetomidine 10 μg/kg i.p., Fluvoxamine 3 mg/kg i.p., alone or combined (Group 7), diazepam 1 mg/kg i.p.
[3] = DEX 10 μg/kg or diazepam 1 mg/kg i.p.
[4] = DEX 10 μg/kg i.p., DIAZEPAM 1 mg/kg i.p., or YOH + vehicle, 5 min test
[5] = DEX 10 μg/kg or diazepam 1 mg/kg i.p., listed as DEX
[6] = FLUVO 3 mg/kg, alone or with DEX 10 μg/kg
[7] = FLUVO 10 mg/kg, alone or with DEX 10 μg/kg
[8] = FLUVO 3 mg/kg i.p., alone or with DEX 10 μg/kg i.p.
[9] = FLUVO 10 mg/kg i.p., alone or with DEX 10 μg/kg i.p.
[10] = Yohimbine 2.5 mg/kg i.p. + vehicle (Group 2) vs Group 1, p<0.0001

## CN1C(=O)CN=C(c2ccccc2)c2cc(Cl)ccc21 [DIAZEPAM, Diazepam]
[1]; [2]
  anxiolytic-like effect in Yohimbine administered rats (conclusion in words): reversed Yohimbine-induced anxiety
[1]; [3]
  In the open arms: Percentage change compared to Yohimbine administered group, Number of entries: +262%
  In the open arms: Percentage change compared to Yohimbine administered group, Time spent: +620%
[1]; [4]
  Number of entries in the open arms (Mean ± SEM): 6.33 ± 0.28
  Time spent in the open arms (Mean ± SEM): 74.98 ± 4.31

## Cc1cccc([C@H](C)c2cnc[nH]2)c1C [Dexmedetomidine, (+) 4-(S)-[1-(2,3-dimethylphenyl)ethyl]-1H-imidazole]
[1]; [2]
  anxiolytic-like effect in Yohimbine administered rats (conclusion in words): not statistically significant
[1]; [3]
  In the open arms: Percentage change compared to Yohimbine administered group, Number of entries: +48%
  In the open arms: Percentage change compared to Yohimbine administered group, Time spent: +146%
[1]; [5]
  In the open arms: Percentage change compared to Yohimbine administered group, Number of entries: +48%
  In the open arms: Percentage change compared to Yohimbine administered group, Time spent: +146%
[1]; [4]
  Number of entries in the open arms (Mean ± SEM): 2.58 ± 0.26
  Time spent in the open arms (Mean ± SEM): 25.66 ± 3.84
rats
  significance of effect on number of entries, % of entries and time spent in the open arms as compared with vehicle control: not significant
rats; Fluoxetine 32 mg/kg i.p.
  anxiolytic-like / anxiogenic-like activity in the Elevated Plus Maze Test (conclusion in words): absence of anxiolytic-like activity

## CNCCC(Oc1ccc(C(F)(F)F)cc1)c1ccccc1 (stereo not drawn) [Fluoxetine, N-methyl-3-(p-trifluoromethylphenoxy)-3-phenylpropylamine]
rats
  significance of effect on number of entries, % of entries and time spent in the open arms as compared with vehicle control: not significant
rats; Fluoxetine 32 mg/kg i.p. alone or with Dexmedetomidine 10 μg/kg, vs vehicle control (Group 1)
  change in total distance travelled in the four arms as compared with vehicle control: −65%
rats; Fluoxetine 32 mg/kg i.p., vs vehicle control (Group 1)
  change in total number of entries in the four arms as compared with vehicle control: −57%
rats; Fluoxetine 32 mg/kg i.p.
  anxiolytic-like / anxiogenic-like activity in the Elevated Plus Maze Test (conclusion in words): tended to show anxiogenic like effect

## COCCCCC(=NOCCN)c1ccc(C(F)(F)F)cc1 [Fluvoxamine, 5-methoxy-1-[4-(trifluoromethyl)phenyl]-1-pentanone O-(2-aminoethyl) oxime]
[1]; [2]
  anxiolytic-like effect in Yohimbine administered rats (conclusion in words): not statistically significant
[1]; Fluvoxamine 3 mg/kg i.p. (Group 5)
  significance of improvement in number of entries in the open arms compared with Yohimbine-administered vehicle group: no significant improvement
[1]; Fluvoxamine 10 mg/kg i.p. (Group 6)
  significance of improvement in number of entries in the open arms compared with Yohimbine-administered vehicle group: no significant improvement
[1]; Fluvoxamine 10 mg/kg i.p., in terms of the time spent in the open arms
  anxiolytic-like effect in Yohimbine administered rats (conclusion in words): significant anxiolytic-like effect
[1]; [6]
  In the open arms: Percentage change compared to Yohimbine administered group, Number of entries: +52%
  In the open arms: Percentage change compared to Yohimbine administered group, Time spent: +105%
[1]; FLUVO 3 mg/kg, alone or with DEX 10 μg/kg, listed as FLUVO
  In the open arms: Percentage change compared to Yohimbine administered group, Time spent: +105%
[1]; [7]
  In the open arms: Percentage change compared to Yohimbine administered group, Number of entries: +76%
  In the open arms: Percentage change compared to Yohimbine administered group, Time spent: +232%
[1]; FLUVO 10 mg/kg, alone or with DEX 10 μg/kg, listed as FLUVO
  In the open arms: Percentage change compared to Yohimbine administered group, Time spent: +232%
[1]; [8]
  Number of entries in the open arms (Mean ± SEM): 2.67 ± 0.22
  Time spent in the open arms (Mean ± SEM): 21.39 ± 2.67
[1]; [9]
  Number of entries in the open arms (Mean ± SEM): 3.08 ± 0.42
  Time spent in the open arms (Mean ± SEM): 34.60 ± 5.24

## COC(=O)[C@@H]1[C@H]2C[C@H]3c4[nH]c5ccccc5c4CCN3C[C@@H]2CC[C@@H]1O [YOH, Yohimbine]
[1]; [10]
  change in number of entries to the open arms as compared to vehicle (saline) treated group: −63%
  change in time spent in the open arms as compared to vehicle (saline) treated group: −81%
[1]; [4]
  Number of entries in the open arms (Mean ± SEM): 1.75 ± 0.25
  Time spent in the open arms (Mean ± SEM): 10.42 ± 1.28
